Patent US9499553B2 (CHUGAI SEIYAKU KABUSHIKI KAISHA, priority 2013, dated 2016)
Counter-ions that a name gives are not always drawn.

Assays:
Format in all cases: cell-based
human PiT-2 = target: T1, human PiT-2 (Homo sapiens, UniProt Q08357); test: Inhibitory effect on 33PO4 uptake into human PiT-2-expressing CHO cells; settings: pH 6.5, read-out: IC50 against 33PO4 uptake into human PiT-2-expressing cells
T1 construct: expressed in transfected cells; host or cells: CHO cells
T1 sequence (Q08357 1-652): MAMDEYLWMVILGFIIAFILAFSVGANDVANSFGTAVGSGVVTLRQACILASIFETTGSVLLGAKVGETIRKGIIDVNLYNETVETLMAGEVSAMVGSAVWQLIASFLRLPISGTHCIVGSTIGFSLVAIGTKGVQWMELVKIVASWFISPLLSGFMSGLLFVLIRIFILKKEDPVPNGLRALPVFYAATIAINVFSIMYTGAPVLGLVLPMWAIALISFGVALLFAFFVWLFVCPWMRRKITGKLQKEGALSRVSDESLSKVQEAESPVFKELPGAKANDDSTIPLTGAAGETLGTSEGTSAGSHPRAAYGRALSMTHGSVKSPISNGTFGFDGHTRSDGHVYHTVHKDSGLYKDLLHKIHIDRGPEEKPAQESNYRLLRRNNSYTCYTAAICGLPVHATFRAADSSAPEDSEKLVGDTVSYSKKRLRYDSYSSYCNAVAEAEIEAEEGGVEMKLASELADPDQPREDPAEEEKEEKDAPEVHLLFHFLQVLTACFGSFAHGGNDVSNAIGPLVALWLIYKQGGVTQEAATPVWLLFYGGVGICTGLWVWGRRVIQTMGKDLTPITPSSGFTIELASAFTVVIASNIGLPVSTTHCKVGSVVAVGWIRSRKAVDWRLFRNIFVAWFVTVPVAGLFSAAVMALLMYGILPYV
Experimental: Test Example 4: Inhibitory Effect on ^33PO4 Uptake into Human PiT-2-Expressing Cell
(§1) CHO cells were transfected with human PiT-2 expression plasmids or empty vectors to prepare human PiT-2-expressing cells and empty vector-expressing cells. The human PiT-2-expressing cells or the empty vector-expressing cells were inoculated to a 96-well plate and incubated overnight in a CO2 incubator. […] After a given time, a 1/20 volume of buffer A containing ^33PO4 was added thereto and reacted at room temperature. After washing with ice-cold buffer A, a liquid scintillator was added to each reaction mixture, and the amount of ^33PO4 uptake was measured using TopCount. The rate of inhibition was determined according to the following expression: Rate (%) of inhibition=(1−(Amount of ^33PO4 uptake in the compound-supplemented well containing the human PiT-2-expressing cells−Amount of ^33PO4 uptake in the compound-supplemented well containing the empty vector-expressing cells)/(Amount of ^33PO4 uptake in the DMSO-supplemented well containing the human PiT-2-expressing cells −Amount of ^33PO4 uptake in the DMSO-supplemented well containing the empty vector-expressing cells))×100

human PiT-1 = target: T2, human PiT-1 (Homo sapiens, UniProt Q8WUM9); test: Inhibitory effect on 33PO4 uptake into human PiT-1-expressing CHO cells; settings: compound 0.24, 1.2, 6 or 30 μM, pH 6.5, read-out: IC50 against 33PO4 uptake into human PiT-1-expressing cells
T2 construct: expressed in transfected cells; host or cells: CHO cells
T2 sequence (Q8WUM9 1-679): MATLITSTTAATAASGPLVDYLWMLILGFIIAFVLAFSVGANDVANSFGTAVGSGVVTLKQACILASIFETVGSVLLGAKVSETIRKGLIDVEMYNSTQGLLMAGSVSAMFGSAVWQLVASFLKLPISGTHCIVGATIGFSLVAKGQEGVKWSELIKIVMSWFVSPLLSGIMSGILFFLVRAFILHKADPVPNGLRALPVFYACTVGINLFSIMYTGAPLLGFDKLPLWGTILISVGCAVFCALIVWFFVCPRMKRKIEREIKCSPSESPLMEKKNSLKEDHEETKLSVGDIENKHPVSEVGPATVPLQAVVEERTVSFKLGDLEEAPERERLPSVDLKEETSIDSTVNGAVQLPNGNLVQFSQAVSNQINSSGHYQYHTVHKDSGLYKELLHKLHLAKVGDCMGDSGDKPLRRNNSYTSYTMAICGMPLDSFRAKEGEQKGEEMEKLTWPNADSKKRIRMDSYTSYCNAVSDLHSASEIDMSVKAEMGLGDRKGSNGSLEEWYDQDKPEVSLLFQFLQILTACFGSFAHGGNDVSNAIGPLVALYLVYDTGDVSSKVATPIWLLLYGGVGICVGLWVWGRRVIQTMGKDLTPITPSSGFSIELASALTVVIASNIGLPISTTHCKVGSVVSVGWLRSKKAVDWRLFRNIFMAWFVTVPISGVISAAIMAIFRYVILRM
Experimental: Test Example 3: Inhibitory Effect on ^33PO4 Uptake into Human PiT-1-Expressing Cell
as §1, with “PiT-1” for “PiT-2”, “PiT-1-expressing” for “PiT-2-expressing”

human NaPi-IIb = target: T3, human NaPi-IIb (Homo sapiens, UniProt O95436); test: Inhibitory effect on 33PO4 uptake into human NaPi-IIb-expressing CHO cells; settings: read-out: IC50
T3 construct: expressed in transfected cells
T3 sequence (O95436 1-690): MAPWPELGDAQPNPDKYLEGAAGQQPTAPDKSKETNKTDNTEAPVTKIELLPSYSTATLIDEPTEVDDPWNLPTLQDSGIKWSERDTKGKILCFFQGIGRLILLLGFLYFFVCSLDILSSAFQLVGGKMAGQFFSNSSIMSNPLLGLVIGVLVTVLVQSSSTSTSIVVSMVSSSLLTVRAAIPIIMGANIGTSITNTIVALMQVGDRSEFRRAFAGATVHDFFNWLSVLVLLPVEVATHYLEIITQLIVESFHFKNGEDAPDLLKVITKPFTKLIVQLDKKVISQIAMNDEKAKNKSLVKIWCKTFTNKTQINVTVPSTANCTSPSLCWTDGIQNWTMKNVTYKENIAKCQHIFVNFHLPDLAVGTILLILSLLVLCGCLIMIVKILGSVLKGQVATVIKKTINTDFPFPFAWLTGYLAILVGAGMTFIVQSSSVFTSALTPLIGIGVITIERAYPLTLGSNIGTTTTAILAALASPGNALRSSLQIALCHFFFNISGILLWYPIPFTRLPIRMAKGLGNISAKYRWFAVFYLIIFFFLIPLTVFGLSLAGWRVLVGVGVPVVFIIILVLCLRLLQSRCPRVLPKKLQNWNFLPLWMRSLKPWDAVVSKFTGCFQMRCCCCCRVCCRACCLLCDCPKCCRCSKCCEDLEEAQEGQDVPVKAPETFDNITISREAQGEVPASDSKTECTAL
In short: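 Stable human NaPi-IIb CHO line (G418-selected), plated and cultured overnight; ³³PO4 added in buffer A and uptake run at room temperature. Cells washed with ice-cold buffer A, then uptake counted by liquid scintillation.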

SMILES	IC50 (human PiT-2) [µM]	IC50 (human PiT-1) [µM]	IC50 (human NaPi-IIb) [µM]
C[C@]12CCCN1N(Cc1ccc(C#CCCCC(=O)O)c(F)c1F)C(=O)C(C(=O)Nc1ccc(C(F)(F)F)cc1-c1cc(C(F)(F)F)ncn1)=C2O [Example 129, 6-[4-[[(4aR)-4-Hydroxy-4a-methyl-2-oxo-3-[[4-(trifluoromethyl)-2-[6-(trifluoromethyl)pyrimidin-4-yl]phenyl]carbamoyl]-6,7-dihydro-5H-pyrrolo[1,2-b]pyridazin-1-yl]methyl]-2,3-difluorophenyl]hex-5-ynoic acid]	8.7	6.5	13.7
C[C@]12CCCN1N(Cc1ccc(CN3CCOCC3)c(F)c1F)C(=O)C(C(=O)Nc1ccc(C(F)(F)F)cc1-c1ccc(C(F)(F)F)nc1)=C2O [Example 164, (4aR)-1-[[2,3-Difluoro-4-(morpholin-4-ylmethyl)phenyl]methyl]-4-hydroxy-4a-methyl-2-oxo-N-[4-(trifluoromethyl)-2-[6-(trifluoromethyl)pyridin-3-yl]phenyl]-6,7-dihydro-5H-pyrrolo [1,2-b]pyridazine-3-carboxamide; hydrochloride]	4.1	4.1	5
C[C@]12CCCN1N(Cc1ccc(OCCCCOC[C@H](O)CO)c(F)c1F)C(=O)C(C(=O)Nc1ccc(C(F)(F)F)cc1-c1cc(C(F)(F)F)ncn1)=C2O [Example 152, (4aR)-1-[[4-[4-[(2R)-2,3-Dihydroxypropoxy]butoxy]-2,3-difluorophenyl]methyl]-4-hydroxy-4a-methyl-2-oxo-N-[4-(trifluoromethyl)-2-[6-(trifluoromethyl)pyrimidin-4-yl]phenyl]-6,7-dihydro-5H-pyrrolo [1,2-b]pyridazine-3-carboxamide]	3.5	5.3	20.6
Cc1c(C#N)ncnc1-c1cc(C(F)(F)F)ccc1NC(=O)C1=C(O)[C@@]2(C)CCCN2N(Cc2ccc(OCCN3CCOCC3)c(F)c2F)C1=O [Example 22, (4aR)-N-[2-(6-Cyano-5-methylpyrimidin-4-yl)-4-(trifluoromethyl)phenyl]-1-[[2,3-difluoro-4-(2-morpholin-4-ylethoxy)phenyl]methyl]-4-hydroxy-4a-methyl-2-oxo-6,7-dihydro-5H-pyrrolo [1,2-b]pyridazine-3-carboxamide]	3.2	–	7.9

The next lines start with the values.

IC50 (human PiT-2) [µM]	IC50 (human PiT-1) [µM]	IC50 (human NaPi-IIb) [µM]	SMILES
1.4	1.2	7.7	COC[C@@H]1CCCN1CCOc1ccc(CN2C(=O)C(C(=O)Nc3ccc(C(F)(F)F)cc3-c3cc(C(F)(F)F)ncn3)=C(O)C3(CCC3)N2C)c(F)c1F [Example 345, 6-[[2,3-Difluoro-4-[2-[(2S)-2-(methoxymethyl)pyrrolidin-1-yl]ethoxy]phenyl]methyl]-9-hydroxy-5-methyl-7-oxo-N-[4-(trifluoromethyl)-2-[6-(trifluoromethyl)pyrimidin-4-yl]phenyl]-5,6-diazaspiro[3.5]non-8-ene-8-carboxamide]
7.2	3.9	3.2	C[C@]12CCCN1N(Cc1ccc(OCCCCCCOC[C@H](O)CO)c(F)c1F)C(=O)C(C(=O)Nc1cnc(C(F)(F)F)nc1-c1ccc(C(F)(F)F)nc1)=C2O [Example 156, (4aR)-1-[[4-[6-[(2R)-2,3-Dihydroxypropoxy]hexoxy]-2,3-difluorophenyl]methyl]-4-hydroxy-4a-methyl-2-oxo-N-[2-(trifluoromethyl)-4-[6-(trifluoromethyl)pyridin-3-yl]pyrimidin-5-yl]-6,7-dihydro-5H-pyrrolo[1,2-b]pyridazine-3-carboxamide]
4.7	4.1	7.5	CN1[C@@H](C(C)(C)C)C(O)=C(C(=O)Nc2ccc(Cl)cc2-c2ccc(C(F)(F)F)nc2)C(=O)N1Cc1ccc(OCCN2CCOCC2)c(F)c1F [Example 267, (3S)-3-tert-Butyl-N-[4-chloro-2-[6-(trifluoromethyl)pyridin-3-yl]phenyl]-1-[[2,3-difluoro-4-(2-morpholin-4-ylethoxy)phenyl]methyl]-4-hydroxy-2-methyl-6-oxo-3H-pyridazine-5-carboxamide]
6.2	5.6	2.8	C[C@]12CCCN1N(Cc1cccc(Cl)c1F)C(=O)C(C(=O)Nc1cc(F)c(Br)c(F)c1)=C2O [Example 196, (4aR)-N-(4-Bromo-3,5-difluorophenyl)-1-[(3-chloro-2-fluorophenyl)methyl]-4-hydroxy-4a-methyl-2-oxo-6,7-dihydro-5H-pyrrolo[1,2-b]pyridazine-3-carboxamide]
3.8	4.6	19.4	CN1[C@@H](C(C)(C)C)C(O)=C(C(=O)Nc2ccc(C(F)(F)F)cc2-c2cc(C(F)(F)F)ncn2)C(=O)N1Cc1ccc(OCCN2CCOCC2)c(F)c1F [Example 264, (3S)-3-tert-Butyl-1-[[2,3-difluoro-4-(2-morpholin-4-ylethoxy)phenyl]methyl]-4-hydroxy-2-methyl-6-oxo-N-[4-(trifluoromethyl)-2-[6-(trifluoromethyl)pyrimidin-4-yl]phenyl]-3H-pyridazine-5-carboxamide]
